Series [1] in a line: Lipophilicity, log D of the compound at pH 7.4. Particulars: buffer.
Series [2] deals with T1, C-C chemokine receptor type 5 (Homo sapiens, UniProt P51681). The experiment in a line: Displacement of [125I]MIP-1alpha from human recombinant CCR5 expressed in CHO cells. In kind it is cell-based. In general terms: Displacement assays read how much labelled ligand stays bound in the presence of the test substance.
Target sequence in this assay (P51681 whole entry): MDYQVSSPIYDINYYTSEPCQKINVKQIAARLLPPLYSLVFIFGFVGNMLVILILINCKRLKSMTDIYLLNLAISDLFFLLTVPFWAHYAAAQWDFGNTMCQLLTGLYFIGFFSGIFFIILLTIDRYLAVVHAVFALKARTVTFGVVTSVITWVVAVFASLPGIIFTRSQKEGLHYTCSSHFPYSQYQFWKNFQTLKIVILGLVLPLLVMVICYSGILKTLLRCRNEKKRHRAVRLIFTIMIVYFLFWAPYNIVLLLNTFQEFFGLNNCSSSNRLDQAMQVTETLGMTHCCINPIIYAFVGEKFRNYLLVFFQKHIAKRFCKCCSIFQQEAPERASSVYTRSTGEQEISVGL
The nature of series [3]: Intrinsic clearance in human liver microsomes. Particulars: liver microsomes. In general terms: Liver microsomes are a subcellular fraction often used to study metabolism.
The target of series [4] is Voltage-gated inwardly rectifying potassium channel KCNH2 (Homo sapiens, UniProt Q12809). The experiment in a line: Displacement of 3,7-Bis[2-(4-nitro[3,5-3H]phenyl)ethyl]-3,7-diazabicyclo[3.3.1]nonane from human ERG expressed in HEK cells after 3 hrs.
Chain of Voltage-gated inwardly rectifying potassium channel KCNH2 (Q12809 whole entry): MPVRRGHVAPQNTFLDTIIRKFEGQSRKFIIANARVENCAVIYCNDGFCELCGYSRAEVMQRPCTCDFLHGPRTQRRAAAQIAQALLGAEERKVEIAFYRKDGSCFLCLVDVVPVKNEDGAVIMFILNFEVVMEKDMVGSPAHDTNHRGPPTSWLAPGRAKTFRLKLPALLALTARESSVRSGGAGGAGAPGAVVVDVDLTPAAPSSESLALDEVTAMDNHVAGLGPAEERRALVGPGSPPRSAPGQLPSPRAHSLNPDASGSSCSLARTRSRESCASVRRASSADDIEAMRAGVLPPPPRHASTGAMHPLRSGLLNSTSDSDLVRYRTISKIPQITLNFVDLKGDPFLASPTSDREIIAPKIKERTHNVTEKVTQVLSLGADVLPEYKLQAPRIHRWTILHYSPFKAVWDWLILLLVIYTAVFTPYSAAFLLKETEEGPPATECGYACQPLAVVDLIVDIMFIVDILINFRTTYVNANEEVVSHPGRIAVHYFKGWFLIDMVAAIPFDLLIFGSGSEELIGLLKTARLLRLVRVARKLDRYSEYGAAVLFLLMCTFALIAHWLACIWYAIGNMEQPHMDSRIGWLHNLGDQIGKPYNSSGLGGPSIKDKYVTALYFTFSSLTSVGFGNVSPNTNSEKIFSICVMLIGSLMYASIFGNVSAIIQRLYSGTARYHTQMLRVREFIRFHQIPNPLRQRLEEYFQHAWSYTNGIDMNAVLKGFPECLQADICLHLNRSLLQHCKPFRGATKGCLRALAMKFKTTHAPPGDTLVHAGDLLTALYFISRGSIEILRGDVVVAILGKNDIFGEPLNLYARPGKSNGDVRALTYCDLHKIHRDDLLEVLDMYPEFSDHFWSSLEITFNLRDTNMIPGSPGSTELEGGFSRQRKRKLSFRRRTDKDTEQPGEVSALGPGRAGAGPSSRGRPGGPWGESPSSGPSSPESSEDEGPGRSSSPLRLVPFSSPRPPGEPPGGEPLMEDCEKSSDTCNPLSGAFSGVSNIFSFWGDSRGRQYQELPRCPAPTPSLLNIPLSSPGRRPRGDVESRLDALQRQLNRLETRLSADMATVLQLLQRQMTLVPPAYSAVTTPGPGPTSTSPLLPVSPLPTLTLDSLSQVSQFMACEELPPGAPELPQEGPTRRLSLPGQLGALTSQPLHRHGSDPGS
Series [5] addresses T1, C-C chemokine receptor type 5. The experiment in a line: Antagonist activity at CCR5 in human whole blood assessed as inhibition of MIP-1beta-induced receptor internalization. In kind it is functional, tissue-based.
Target sequence in this assay (P51681 whole entry, looked up): as the sequence (P51681 whole entry) above

Experimental findings from ChEMBL document CHEMBL1949642 (Bioorg Med Chem Lett, 2012) are described below.

Turning to `CCN(C(=O)Cc1ccc(S(C)(=O)=O)cc1)C1CCN(CCC(c2ccccc2)C2CCN(S(=O)(=O)CC(F)(F)F)CC2)CC1` (centres undefined), the logD (usually the decadic logarithm of the distribution of all forms, ionised or not, between an organic phase and buffer at a given pH) in series [1] amounted to 2.2. The IC50 (as a rule, the concentration needed to halve the response being measured) in series [2] came out at 5.4 nM. For the same molecule, the microsomal CLint (usually the rate of metabolic loss divided by the concentration) in series [3] was 28 µL/min/mg.
For the molecule `CCN(C(=O)Cc1ccc(S(C)(=O)=O)cc1)C1CCN(CC[C@@H](c2ccccc2)N2CCN(S(=O)(=O)C(F)(F)F)CC2)CC1`, the IC50 in series [2] worked out at 1.6 nM; in series [4] it was 3200 nM. In series [3], this molecule had a microsomal CLint of 33 µL/min/mg.
Molecule `CCN(C(=O)Cc1ccc(S(C)(=O)=O)cc1)C1CCN(CC[C@@H](c2ccccc2)N2CCN(S(=O)(=O)CC(F)(F)F)CC2)CC1` returned a logD in series [1] of 1.8. For the same molecule, the IC50 in series [2] turned out to be 8.9 nM; in series [4], 5800 nM. The molecule also showed a microsomal CLint in series [3] of 47 µL/min/mg.
In series [1], `CCN(C(=O)Cc1ccc(S(C)(=O)=O)cc1)C1CCN(CC[C@@H](c2ccccc2)C2CCN(S(C)(=O)=O)CC2)CC1` yielded a logD of 1.1. The results for the IC50 in series [2] and in series [4] were 1.1 nM and 25000 nM, respectively. This molecule had a microsomal CLint in series [3] of 31 µL/min/mg.
In turn, `CCN(C(=O)Cc1ccc(S(C)(=O)=O)cc1)C1CCN(CC[C@@H](c2ccccc2)C2CCN(S(=O)(=O)C(F)(F)F)CC2)CC1` showed a logD in series [1] of 3.4. For the same molecule, the IC50 in series [2] was less than 0.1 nM; in series [4], 1200 nM. For the same molecule, in series [3], the microsomal CLint is 28 µL/min/mg.
`CCN(C(=O)Cc1ccc(S(C)(=O)=O)cc1)C1CCN(CC[C@@H](c2cccc(S(C)(=O)=O)c2)C2CCN(S(C)(=O)=O)CC2)CC1`: in series [1], the logD worked out at 0.6. The IC50 in series [2] stood at 794 nM.
`CCN(C(=O)Cc1ccc(S(C)(=O)=O)cc1)C1CCN(CC[C@@H](c2cccc(OC)c2)C2CCN(S(C)(=O)=O)CC2)CC1` returned a pH-dependent lipophilicity (logD) in series [1] of 1.2. The IC50 in series [2] came to 5 nM; in series [4] it was 32000 nM. Also, the microsomal CLint in series [3] is 45 µL/min/mg.
In turn, `CCN(C(=O)Cc1ccc(S(C)(=O)=O)cc1)C1CCN(CC[C@@H](c2cccc(F)c2)C2CCN(S(C)(=O)=O)CC2)CC1` displayed a microsomal CLint in series [3] of 18 µL/min/mg.
`CCN(C(=O)Cc1ccc(S(C)(=O)=O)cc1)C1CCN(CC[C@@H](c2cccc(C)c2)C2CCN(S(C)(=O)=O)CC2)CC1`: the pH-dependent lipophilicity (logD) in series [1] stood at 1.5. Also, in series [2], the IC50 was found to be 0.44 nM. Besides, the microsomal CLint in series [3] was determined as 104 µL/min/mg.
`CCN(C(=O)Cc1ccc(S(C)(=O)=O)cc1)C1CCN(CC[C@@H](c2cc(F)cc(Cl)c2)C2CCN(S(C)(=O)=O)CC2)CC1` had a logD in series [1] of 1.6. Also, in series [3], the microsomal CLint was 22 µL/min/mg.
`CCN(C(=O)Cc1ccc(S(C)(=O)=O)cc1)C1CCN(CC[C@@H](c2cc(C)cc(C)c2)C2CCN(S(C)(=O)=O)CC2)CC1` displayed a logD in series [1] of 1.9. Further, the IC50 in series [2] is less than 0.1 nM. Further, in series [3], the microsomal CLint was more than 150 µL/min/mg.
Molecule `CCN(C(=O)Cc1ccc(S(C)(=O)=O)cc1)C1CCN(CC[C@@H](c2cccc(Cl)c2)C2CCN(S(C)(=O)=O)CC2)CC1` gave a logD in series [1] of 1.8. The IC50 in series [2] turned out to be 0.55 nM; in series [4], 7900 nM. The molecule also yielded a microsomal CLint in series [3] of 32 µL/min/mg.
`CCN(C(=O)Cc1ccc(S(C)(=O)=O)cc1)C1CCN(CC[C@@H](c2cccc(C(F)(F)F)c2)C2CCN(S(C)(=O)=O)CC2)CC1` returned a logD in series [1] of 1.9. The IC50 was determined as 3.5 nM in series [2] and 7900 nM in series [4]. In series [3], this molecule came in with a microsomal CLint of 17 µL/min/mg.
In series [1], `CCN(C(=O)Cc1ccc(S(C)(=O)=O)cc1)C1CCN(CC[C@@H](c2cc(Cl)cc(Cl)c2)C2CCN(S(C)(=O)=O)CC2)CC1` returned a logD of 2.6. The IC50 in series [2] is less than 0.1 nM; in series [4], 6500 nM.
Consider `CCN(C(=O)Cc1ccc(S(C)(=O)=O)cc1)C1CCN(CC[C@H](c2ccc(S(C)(=O)=O)cc2)c2cc(F)cc(F)c2)CC1`, for which, in series [5], the A2 was determined as 1.1 nM. Further, the microsomal CLint in series [3] was determined as 8 µL/min/mg.
In the case of `CCN(C(=O)Cc1ccc(S(C)(=O)=O)cc1)C1CCN(CCC(c2ccccc2)N2CCN(C)CC2)CC1` (racemic), the logD in series [1] was found to be 0.9.
In turn, `CCN(C(=O)Cc1ccc(S(C)(=O)=O)cc1)C1CCN(CCC(c2ccccc2)N2CCN(c3ccccc3)CC2)CC1` (racemic) had a logD in series [1] of 2.7. Besides, the IC50 is 5 nM in series [2] and 13000 nM in series [4]. This molecule came in with a microsomal CLint in series [3] of 26 µL/min/mg.
For `CCN(C(=O)Cc1ccc(S(C)(=O)=O)cc1)C1CCN(CCC(c2ccccc2)N2CCN(c3cccc(F)c3)CC2)CC1` (racemic) the same measures were 3.2, 3.1 nM, 3200 nM and 22 µL/min/mg.
`CCN(C(=O)Cc1ccc(S(C)(=O)=O)cc1)C1CCN(CCC(c2ccccc2)N2CCN(C(C)=O)CC2)CC1` (racemic) came in with a logD in series [1] of 0.9. For the same molecule, the IC50 in series [2] stood at 229 nM.
Molecule `CCN(C(=O)Cc1ccc(S(C)(=O)=O)cc1)C1CCN(CCC(c2ccccc2)N2CCN(S(C)(=O)=O)CC2)CC1` (racemic) returned a logD in series [1] of 0.8. For the same molecule, the IC50 in series [2] was found to be 39 nM. Also, in series [3], the microsomal CLint was less than 3 µL/min/mg.
On to `CCN(C(=O)Cc1ccc(S(C)(=O)=O)cc1)C1CCN(CCC(c2ccccc2)N2CCN(S(=O)(=O)CC)CC2)CC1` (racemic), for which the logD in series [1] was 1. For the same molecule, the IC50 in series [2] worked out at 15 nM. The same molecule came in with a microsomal CLint in series [3] of 52 µL/min/mg.
In turn, `CCN(C(=O)Cc1ccc(S(C)(=O)=O)cc1)C1CCN(CCC(c2ccccc2)N2CCC(C)CC2)CC1` (racemic) returned a logD in series [1] of 2. The IC50 in series [2] came out at 339 nM.
For the molecule `CCN(C(=O)Cc1ccc(S(C)(=O)=O)cc1)C1CCN(CCC(c2ccccc2)N2CCC(Cc3ccccc3)CC2)CC1` (racemic), in series [1], the logD turned out to be 3.7. Also, the IC50 in series [2] is 162 nM.
Consider `CCN(C(=O)Cc1ccc(S(C)(=O)=O)cc1)C1CCN(CCC(c2ccccc2)N2CCC(C(C)=O)CC2)CC1` (racemic), for which the logD in series [1] worked out at 0.9. Also, in series [2], the IC50 was determined as 83 nM. For the same molecule, the microsomal CLint in series [3] was 21 µL/min/mg.
`CCN(C(=O)Cc1ccc(S(C)(=O)=O)cc1)C1CCN(CCC(c2ccccc2)C2CCN(C)CC2)CC1` (racemic) had a logD in series [1] of 1. The IC50 in series [2] stood at 126 nM.
For the molecule `CCN(C(=O)Cc1ccc(S(C)(=O)=O)cc1)C1CCN(CCC(c2ccccc2)C2CCN(Cc3ccccc3)CC2)CC1` (racemic), the IC50 in series [2] was 8.9 nM. In addition, the microsomal CLint in series [3] was more than 150 µL/min/mg.
`CCN(C(=O)Cc1ccc(S(C)(=O)=O)cc1)C1CCN(CCC(c2ccccc2)C2CCN(C(C)=O)CC2)CC1` (racemic) came in with a logD in series [1] of 1.4. Besides, the IC50 in series [2] turned out to be 37 nM.
In series [1], `CCN(C(=O)Cc1ccc(S(C)(=O)=O)cc1)C1CCN(CCC(c2ccccc2)C2CCN(S(=O)(=O)CC)CC2)CC1` (racemic) came in with a logD of 1.6. Besides, the IC50 in series [2] came to 2.4 nM. Also, the microsomal CLint in series [3] was 61 µL/min/mg.
